From BindingDB's records for doi:10.1021/jm00076a003 (Eisai, 1994) come the findings set out here.

The structures appear in SMILES notation. A value given as a limit tells only on which side of the number the result lay.

As usually defined, the IC50 is the concentration needed to halve the response being measured.

For this test, the target named is cGMP-specific 3',5'-cyclic phosphodiesterase (PDE5A) (Sus scrofa). In words: Inhibitory activity against cyclic GMP-phosphodiesterase (PDE V) isolated from porcine aorta.
As to `COc1cc2c(=O)n(CCc3ccc4c(c3)OCO4)cnc2c(OC)c1OC` [3-(2-Benzo[1,3]dioxol-5-yl-ethyl)-6,7,8-trimethoxy-3H-quinazolin-4-one], the IC50 amounted to 32000 nM.
With `COc1cc2c(NCCCCCO)ncnc2c(OC)c1OC` [5-(6,7,8-Trimethoxy-quinazolin-4-ylamino)-pentan-1-ol], the IC50 was found to be 5500 nM.
The molecule `CCCc1c(OCc2ccc3c(c2)OCO3)ccc2c(=O)cc(C(=O)O)oc12` [7-(Benzo[1,3]dioxol-5-ylmethoxy)-4-oxo-8-propyl-4H-chromene-2-carboxylic acid] displayed an IC50 of 650 nM. This IC50 is about 8.5-fold lower than that of the molecule before.
`CCCc1c(OCCCOc2ccc3c(=O)cc(C(=O)O)oc3c2CCC)ccc(C(C)=O)c1O` [7-[3-(4-Acetyl-3-hydroxy-2-propyl-phenoxy)-propoxy]-4-oxo-8-propyl-4H-chromene-2-carboxylic acid] showed an IC50 of 1500 nM.
On to `COc1cc2c(NCc3ccc4c(c3)OCCO4)ncnc2c(OC)c1OC` [(2,3-Dihydro-benzo[1,4]dioxin-6-ylmethyl)-(6,7,8-trimethoxy-quinazolin-4-yl)-amine], for which inhibition was half-maximal at 780 nM (IC50).
Turning to `COc1cc(OC)c(CNc2ncnc3c(OC)c(OC)c(OC)cc23)c(OC)c1` [(2,4,6-Trimethoxy-benzyl)-(6,7,8-trimethoxy-quinazolin-4-yl)-amine], the IC50 is over 100000 nM.
Regarding `COc1cc(CNc2ncnc3c(OC)c(OC)c(OC)cc23)cc(OC)c1OC` [(3,4,5-Trimethoxy-benzyl)-(6,7,8-trimethoxy-quinazolin-4-yl)-amine], the midpoint of inhibition, the IC50, lay at 8900 nM.
`COc1cc2c(NCc3cccc(Cl)c3)ncnc2c(OC)c1OC` [(3-Chloro-benzyl)-(6,7,8-trimethoxy-quinazolin-4-yl)-amine] gave an IC50 of 1300 nM. Compared with the last molecule, the IC50 is about 6.8-fold lower.
Under `COc1cccc(CNc2ncnc3c(OC)c(OC)c(OC)cc23)c1` [(3-Methoxy-benzyl)-(6,7,8-trimethoxy-quinazolin-4-yl)-amine] stands 1700 nM.
The same measure for `COc1cc2c(NCc3cccc([N+](=O)[O-])c3)ncnc2c(OC)c1OC` [(3-Nitro-benzyl)-(6,7,8-trimethoxy-quinazolin-4-yl)-amine]: 3500 nM.
As for `COc1cc2c(NCc3ccc(Cl)cc3)ncnc2c(OC)c1OC` [(4-Chloro-benzyl)-(6,7,8-trimethoxy-quinazolin-4-yl)-amine], inhibition was half-maximal at 1300 nM (IC50).
The molecule `COc1ccc(CNc2ncnc3c(OC)c(OC)c(OC)cc23)cc1` [(4-Methoxy-benzyl)-(6,7,8-trimethoxy-quinazolin-4-yl)-amine] had an IC50 of 1000 nM.
The molecule `COc1cc2c(NCc3ccc([N+](=O)[O-])cc3)ncnc2c(OC)c1OC` [(4-Nitro-benzyl)-(6,7,8-trimethoxy-quinazolin-4-yl)-amine] gave an IC50 of over 100000 nM.
`COc1cc2c(NCc3ccccc3)ncnc2c(OC)c1OC` [Benzyl-(6,7,8-trimethoxy-quinazolin-4-yl)-amine]: the IC50 amounted to 2000 nM.
On to `COc1cc2c(NCc3ccco3)ncnc2c(OC)c1OC` [Furan-2-ylmethyl-(6,7,8-trimethoxy-quinazolin-4-yl)-amine], for which half-maximal inhibition (IC50) was put at 4000 nM.
The same measure for `COc1cc2c(NCc3ccc4c(c3)CCC4)ncnc2c(OC)c1OC` [Indan-5-ylmethyl-(6,7,8-trimethoxy-quinazolin-4-yl)-amine]: 1900 nM.
